Legend:
DNMT1 = experiment: Western blot of DNMT1 protein expression in treated DU145 cells; type: cell-based; settings: 24 hours, Western blot (FIG. 1)
HPrEC cells = experiment: MTS cell survival assay, HPrEC; type: cell-based; settings: HPrEC normal cells, 72 hours
Experimental: (§1) Culturing prostate cancer cells PC3 and DU145 cells, as well as non-cancerous normal cells (5000 cells/well) in a 96-well cell culture dish, and then using different doses of said compound M3 to treat prostate cancer cells PC3 and DU145 cells and normal […] cells RWPE1 and HPrEC. After 72 hours, detecting the survival rate of the cells by MTS method, and calculate […] of said compound M3 for different cells using software.

[1] = system: prostate cancer DU145 cells xenograft tumor; experiment: Subcutaneous xenograft model of prostate cancer DU145 cells in nude mouse; type: in vivo; settings: 100 mg/kg/day intragastrically, 5 days a week, 4 weeks; compared with control compound M1
Experimental: Establishing a subcutaneous xenograft model of prostate cancer DU145 cells (1×106) in immunodeficient mouse by subcutaneous injection, allowing around 2-3 weeks for the xenograft to grow into a size of around 250 mm3, and then intragastrically administering the compound M3 of the present invention (100 mg/kg/day) once a day, 5 days a week with 2 days rest in between, for a total of 4 weeks of continuous treatment. Said […] and solvent DMSO are used as controls. Tumor size is measured before treatment and every 3 days after treatment begins. The size of the tumor is calculated according to the formula V=length×width 2/2.

[2] = system: prostate cancer cells DU145; experiment: MTS cell survival assay, DU145; type: cell-based; settings: Homo sapiens, DU-145, DU145, 72 hours, read-out: half inhibitory dose (IC50)
Experimental: as §1

[3] = Safety in nude mouse: weight and serum biochemical indicators; type: in vivo; settings: 200 mg/kg/day intragastrically, 4 weeks
Experimental: Intragastrically administering the compound M3 of the present invention (200 mg/kg/day) in an immunodeficient nude mouse once a day, 5 days a week with 2 days rest in between, for a total of 4 weeks of continuous treatment; using solvent DMSO as a control. Weight of the nude mouse is measured before treatment and every 3 days after the treatment begins. When the experiment ends, extract blood from the nude mouse, separate blood serum, and detect the changes in biochemical indicators, including: aspartate aminotransferase (AST) and alanine aminotransferase (ALT) indicative of liver function, blood urea nitrogen (BUN) and creatinine (CREA) indicative of kidney function, and creatine kinase (CK) and l lactate dehydrogenase (LDH-L) indicative of heart function, to evaluate the effect of […] on heart, liver and kidney functions.

HDAC1 [4] = target: T1, HDAC1 (Homo sapiens, UniProt Q13547); experiment: Western blot of acetylated histone H3 and total histone H3 in treated DU145 cells (HDAC targeting); type: cell-based; settings: FIG. 6, M2 and M3 under the same dose
T1 construct: endogenous in cells; host or cells: DU145
T1 sequence (Q13547 whole entry): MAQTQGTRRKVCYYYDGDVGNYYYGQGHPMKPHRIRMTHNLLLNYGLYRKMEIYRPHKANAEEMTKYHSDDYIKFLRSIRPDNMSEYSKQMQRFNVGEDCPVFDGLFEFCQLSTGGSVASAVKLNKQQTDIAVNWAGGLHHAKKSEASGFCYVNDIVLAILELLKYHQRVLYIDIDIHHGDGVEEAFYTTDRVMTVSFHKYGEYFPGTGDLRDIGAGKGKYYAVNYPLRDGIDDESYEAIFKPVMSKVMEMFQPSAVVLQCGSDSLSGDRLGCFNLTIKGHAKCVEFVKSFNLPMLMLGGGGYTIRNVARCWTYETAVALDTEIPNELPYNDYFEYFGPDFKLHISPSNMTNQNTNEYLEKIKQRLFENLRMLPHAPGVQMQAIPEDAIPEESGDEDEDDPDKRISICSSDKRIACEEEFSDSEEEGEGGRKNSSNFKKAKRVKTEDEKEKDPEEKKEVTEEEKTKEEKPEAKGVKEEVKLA
Experimental: (§2) Culturing a same amount of prostate cancer cell line DU145 in each well of a 6-well culture dish, allowing cell adhesion for 24 hours, and then using different doses of said compound M3 (50, 100 and 150 μM) to treat the prostate cancer cell DU145, and using said compound M1 as a control drug. After 24 hours, harvest the cells for Western blot to detect the protein levels of UHRF1, histone H3 and acetylated histone H3. […] The results of this experiment verifies that the compound M3 of the present invention specifically dual-targeting UHRF1 and HDAC molecules.

HDAC1 [5] = experiment: as above; type: cell-based; settings: DU145 cells, 50, 100 and 150 μM, 24 hours, Western blot (FIG. 1)
Experimental: as §2

UHRF1 = target: T2, UHRF1 (Homo sapiens, UniProt Q96T88); experiment: Western blot of UHRF1 protein level in treated DU145 cells; type: cell-based
T2 construct: reduces the protein level of the oncogene UHRF1 in prostate cancer cells in a dose-dependent manner; endogenous in cells; host or cells: DU145
T2 sequence (Q96T88 1-793): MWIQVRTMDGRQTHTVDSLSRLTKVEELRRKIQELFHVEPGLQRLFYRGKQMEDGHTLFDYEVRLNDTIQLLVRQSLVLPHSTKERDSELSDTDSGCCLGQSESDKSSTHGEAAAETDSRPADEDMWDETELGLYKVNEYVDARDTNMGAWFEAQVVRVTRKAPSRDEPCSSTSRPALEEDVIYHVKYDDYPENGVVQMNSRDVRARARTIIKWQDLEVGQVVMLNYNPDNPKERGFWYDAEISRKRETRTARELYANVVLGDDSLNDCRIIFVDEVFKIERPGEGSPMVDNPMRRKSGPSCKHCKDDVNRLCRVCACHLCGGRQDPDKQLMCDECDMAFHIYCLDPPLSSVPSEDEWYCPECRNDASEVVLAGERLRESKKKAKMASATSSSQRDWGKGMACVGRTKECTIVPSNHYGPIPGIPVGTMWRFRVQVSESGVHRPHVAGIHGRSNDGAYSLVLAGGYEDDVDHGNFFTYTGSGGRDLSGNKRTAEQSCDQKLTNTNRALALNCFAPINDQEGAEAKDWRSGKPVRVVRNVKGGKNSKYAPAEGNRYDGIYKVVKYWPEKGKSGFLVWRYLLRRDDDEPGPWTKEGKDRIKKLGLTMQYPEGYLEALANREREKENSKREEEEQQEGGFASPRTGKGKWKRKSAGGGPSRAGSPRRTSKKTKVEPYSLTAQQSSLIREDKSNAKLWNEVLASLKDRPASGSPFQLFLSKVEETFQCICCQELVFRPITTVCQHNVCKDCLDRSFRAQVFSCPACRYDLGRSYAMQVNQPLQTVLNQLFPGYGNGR
Experimental: as §2

RWPE1 cells = experiment: MTS cell survival assay, RWPE1; type: cell-based; settings: Homo sapiens, RWPE-1, RWPE1 normal cells, 72 hours
Experimental: as §1

[6] = system: prostate cancer cells PC3; experiment: MTS cell survival assay, PC3; type: cell-based
Experimental: as §1

O=C(CCCCCCC(=O)Nc1c[nH]c(=O)[nH]c1=O)NO [M3, N1-(carbonyl-5-aminouracil)-N8-octylhydroxyamide]
protein expression of DNMT1 (DNMT1): significantly reduced
IC50 (HPrEC cells): > 300 µM
tumor growth [1]: significantly reduces tumor growth compared with the control compound M1
IC50 [2]: < 50 µM
weight of the nude mouse [3]: does not significantly reduce the weight
heart function (CK, LDH-L) ([3]; blood serum): no significant effect
kidney function (BUN, CREA) ([3]; blood serum): no significant effect
liver function (AST, ALT) ([3]; blood serum): no significant effect
activity of HDAC1 (acetylated histone H3) (HDAC1 [4]): significantly inhibits the activity of HDAC1
acetylation level of histone H3 (HDAC1 [5]): causes an increase in acetylation level of histone H3
total histone H3 level (HDAC1 [5]): not affected
protein level of UHRF1 (UHRF1; DU145 cells, 50, 100 and 150 μM, 24 hours, Western blot (FIG. 1)): specifically reduces the protein level of the oncogene UHRF1 in prostate cancer cells in a dose-dependent manner
protein level of UHRF1 target (UHRF1; FIG. 6, M2 and M3 under the same dose): significantly reduces the protein stability of UHRF1
IC50 (RWPE1 cells): > 300 µM
IC50 ([6]; PC3, 72 hours, MTS, read-out: half inhibitory dose (IC50)): < 50 µM
selectivity for killing prostate cancer cells ([6]; PC3 and DU145 compared with RWPE1 and HPrEC): good selectivity for killing prostate cancer cells

Source: patent US11479534B2, “Compound and use thereof in medicine” (Changsha Hooz Bioscience And Technology Co., Ltd, priority 2018, dated 2022)
